Patent publication US20200338144A1, “AGENT FOR PREVENTING OR TREATING SMALL INTESTINAL INJURY INDUCED BY NON-STEROIDAL ANTI-INFLAMMATORY DRUG AND PROTON PUMP INHIBITOR” (priority 2017, published 2020)

Tested on: small intestinal injury induced by an NSAID and a PPI
Assay: Test 1: rate of change of hematocrit values in rats given an NSAID and a PPI
Format: in vivo, Wister male rats
Settings: bacteria 1×10^9 cfu/animal oral once a day
Description: Frozen stocks of the following bacterial strains were statically cultured in GAM broth at 37° C. for 24 hours: the Bifidobacterium bifidum G9-1 strain (B. bifidum G9-1) (Accession No. NITE BP-817), the Bifidobacterium longum reference strain JCM 1217^T (B. longum JCM 1217) (purchased from Japan Collection of Microorganisms (JCM), RIKEN BioResource Research Center), the Bifidobacterium infantis reference strain JCM 1222^T (B. infantis JCM 1222) (purchased from JCM), the Bifidobacterium adolescentis reference strain JCM 1275^T (B. adolescentis JCM 1275) (purchased from JCM), and the Bifidobacterium dentium reference strain JCM 1195^T (B. dentium JCM 1195) (purchased from JCM). Each of the bacterial liquid cultures was inoculated into fresh GAM broth at a ratio (by volume) of liquid culture to GAM broth of 1:100, and statically cultured at 37° C. for 24 hours. […]
The centrifuged bacterial cells were suspended in 0.75 mL of physiological saline. […] The colonies appeared on the plates were counted, and the number of viable bacteria was calculated based on the dilution factor. […]
At the start of the experiments, the blood was collected from the tail vein with hematocrit capillary tubes (Thermo Fisher Scientific K.K.) to measure hematocrit values. […] After grouping, the body weight of the animals was measured for nine days, and one of the PPIs (10 mg/kg) was intraperitoneally administered twice a day. […]

## Bifidobacterium longum
Ibuprofen 10 mg/kg oral + lansoprazole 10 mg/kg i.p. twice a day, FIG. 7
  inhibitory effect on small intestinal injury (hematocrit reduction) induced by ibuprofen and lansoprazole: higher inhibitory effect
Ibuprofen 10 mg/kg oral + omeprazole 10 mg/kg i.p. twice a day, FIG. 4 (n=5)
  inhibitory effect on small intestinal injury (hematocrit reduction) induced by ibuprofen and omeprazole: higher inhibitory effect
